Results on 8 compounds are retold here after patent US20210301261A1, “HUMAN LIVER MICROPHYSIOLOGY PLATFORM AND SELF ASSEMBLY LIVER ACINUS MODEL AND METHODS OF THEIR USE” (priority 2014, published 2021).

In general, Cmax refers to the peak of the concentration-time curve.

For data set [1], the system named is hepatocytes in SALA model. Briefly: Oxidative stress response in biosensor transduced hepatocytes in SALA model. The data set is classed as cell-based, human. To be noted: 0 to 15 hr treatment period. The source says:
Image processing at each time point provides kinetic physiological responses is provided in Panel D.

For data set [2] the following is noted: in vivo; cited from earlier work.
Data set [3] relates to liver. Conditions: cited from earlier work; for liver injury incidents/million prescriptions: human; for Human/Animal Toxicology (findings in words, wrapped cells): in vivo.
The test system of data set [4] is liver. To be noted: cited from earlier work.
A further data set relates to SALA model cells. Conditions: human. The source says: (§1) Efflux media was collected for measurements of organ model health using assays for lactate dehydrogenase (LDH) release, and albumin, and urea synthesis. LDH is released from cells under conditions of cytotoxic damage. Albumin and urea are secreted from functional hepatocytes. The media efflux was also used to monitor the presence of drug and metabolic products for PK. When compounds are included in the microfluidic media, hepatocytes are exposed to the compound and often biotransform them to a chemically distinct product. Mass spectrometry is a specific and sensitive method to observe these changes. Typically, ca. 15 microliters of media is collected for each biochemical and mass spec measurement (flow rate=5 microliters per hour.)
Troglitazone (28 or 180 μM), or caffeine (600 μM, negative control) was introduced into the microfluidic device for 0-28 days.

Data set [5] concerns hepatocytes in SALA model (bile canalicular efflux, BSEP). Nature of the data set: Bile efflux (CMFDA fluorescence) in SALA model. To be noted: 50 μM. Format: cell-based, human.
The test system of data set [6] is hepatocyte sentinel cells. Nature of the data set: Statistical validation of biosensors in hepatocyte sentinel cells in microplates. The data set is classed as cell-based, human. Conditions: 50 μM. The source says: A panel of biosensors was delivered through lentiviral transduction in multiple fluorescent protein colors initially validated in microplates for an acute response. An SSMD level of ≥2 is considered a statistically valid response.

In the next data set the test system is LX-2 stellate cells. To be noted: 30 nM.
Data set [7] has as its system hepatocytes in SALA model (Cyp3A4 signature metabolite). Briefly: LC-MS of efflux media: metabolic clearance and metabolite production in SALA model. To be noted: 5 μM testosterone in influx media; efflux collected over 24 hr at 5 μl/hr; day 10.
Text: as §1

In data set [8] the test system is hepatocytes in SALA model. Nature of the data set: Hepatocyte area measured in real-time with cytochrome C biosensor in SALA model. The data set is classed as cell-based, human. The source says:
(§2) Correlation of propidium iodide (PI) uptake with cell area of hepatocytes is illustrated in FIG. 11. The cytochrome C biosensor is used to measure hepatocyte area in order to perform real-time measurements of apoptosis.

Data set [9] relates to hepatocytes in SALA model. Briefly: Propidium iodide uptake of hepatocytes in SALA model. Format: cell-based, human. Conditions: 200 μM trovafloxacin co-treated with 1 ug/ml LPS, compared to vehicle.
Text: as §2

The next data set has as its system U937 cells. Nature of the data set: TNF-alpha release from LPS activated U937 cells. Format: cell-based, human.

Entries after “also recorded” stand apart in the source; their conditions may differ. Like-named read-outs stand apart in the source and are kept apart here.

Text for LX-2 stellate cells: Day 21 Immunofluorescence images of a SALA liver vehicle treated 21 days, fixed, and reacted against α-Human Collagen type ½ is provided in panel C. […] Nuclei are false colored blue in all images.

Regarding `CCc1nn(CCCN2CCN(c3cccc(Cl)c3)CC2)c(=O)n1CCOc1ccccc1` [Nefazodone], in data set [1], the ROS generation result was “increase of ROS generation”, the mitochondrial function result was “decrease in mitochondrial function” and the “oxidative stress in hepatocytes” value is on record as “induces oxidative stress”. Further, in [2], the peak concentration (Cmax) is 900 nM. For the same compound, in the data set on liver [3], the “liver injury incidents/million prescriptions” value is given as 105 incidents/million incidents/million prescriptions and the “Human/Animal Toxicology (findings in words, wrapped cells)” value (“Human/Animal Toxicology” below) is on record as “Acute hepatitis; also recorded: Centrilobular (zone 3); also recorded: Cholestasis, apoptosis”. In addition, the “MOT (wrapped cells)” value in the data set on liver [4] was “Mitochondrial and ROS and Bile Efflux”.

Turning to `CS(=O)(=O)Nc1ccc([N+](=O)[O-])cc1Oc1ccccc1` [Nimesulide], the “LDH leakage, time of peak” value in the data set with SALA model cells (210 μM) was about 5 days.

For the compound `O=c1n(CCCN2CCN(c3cccc(Cl)c3)CC2)nc2ccccn12` [Trazodone], in data set [2], the peak concentration (Cmax) was 5000 nM. Besides, in the data set with liver [3], the “liver injury incidents/million prescriptions” value was 0.21 incidents/million prescriptions and the “Human/Animal Toxicology” value is reported as “extremely rare liver; also recorded: Mild ↑transaminases,”. In addition, the “MOT (wrapped cells)” value in the data set with liver [4] is recorded as “No known”.

Take `Cc1c(C)c2c(c(C)c1O)CCC(C)(COc1ccc(CC3SC(=O)NC3=O)cc1)O2` (stereo not drawn) [Troglitazone]: the “release of LDH, time of peak loss” value with SALA model cells (28 μM) was about 13 days. For the same compound, the “release of LDH, time of peak loss” value with SALA model cells (180 μM) was about 4 days. The “CMFDA dye uptake and efflux in hepatocytes” value in data set [5] (10 day treatment, monitored 60 minutes, compared to vehicle) is “slower uptake and inhibition of efflux”. In data set [5] (at 60 minutes), the “hepatocyte retention of dye” value was “increased hepatocyte retention of dye”. For the same compound, the “SSMD, Bile canalicular efflux (CMFDA)” value in data set [6] turned out to be 11. In data set [2], the Cmax was 1800 nM. In the data set with liver [3], the “liver injury incidents/million prescriptions” value was “Up to 1000 incidents/million prescriptions” and the “Human/Animal Toxicology” value was “Moderate to severe; also recorded: Variable necrosis,; also recorded: cholestasis,; also recorded: inflammatory”. The “MOT (wrapped cells)” value in the data set on liver [4] is reported as “Mitochondrial; also recorded: BSEP inhibitor”.

Take `CN(Cc1cnc2nc(N)nc(N)c2n1)c1ccc(C(=O)N[C@@H](CCC(=O)O)C(=O)O)cc1` [methotrexate]: in the data set on LX-2 stellate cells (day 21, relative to vehicle control), the “expression of collagen type 1A2 protein in LX-2 stellate cells” value is “increased”. Moreover, the “LX-2 stellate cell division, transmigration and accumulation in hepatocyte layer” value in the data set on LX-2 stellate cells (over 21 days, compared with vehicle (1.0% DMSO)) is listed as “accelerated rate”.

Consider `C[C@]12CC[C@H]3[C@@H](CCC4=CC(=O)CC[C@@]43C)[C@@H]1CC[C@@H]2O` [testosterone], for which the “testosterone exits unchanged through the device (ratio of mass area under the curves)” value in data set [7] came out at 27%.

In the case of `N[C@@H]1[C@H]2CN(c3nc4c(cc3F)c(=O)c(C(=O)O)cn4-c3ccc(F)cc3F)C[C@@H]12` [trovafloxacin], the hepatocyte area entry is on record as “decrease in hepatocyte area” in data set [8] (200 μM trovafloxacin alone, day 7) and “decrease in hepatocyte area” in [8] (200 μM trovafloxacin plus 1 ug/ml LPS, day 5). In [8] (200 μM trovafloxacin co-treated with 1 ug/ml LPS, compared to vehicle (1% DMSO)), the “cell area of hepatocytes” value was “reduction in cell area”. The “propidium iodide (PI) uptake” value in [9] is “increased PI uptake”; in [9] (listed as trovofloxacin), “increase in propidium iodide uptake”.

In the case of Lipopolysaccharide [LPS], the “EC50 of TNF-alpha release” value in the data set on U937 cells was found to be 0.7 µg/mL.
